{"source": "paper PMC6902048", "about": "“UGT85A84 Catalyzes the Glycosylation of Aromatic Monoterpenes in Osmanthus fragrans Lour. Flowers” (Frontiers in Plant Science, 2019)", "key": {"[1]": {"tested_on": "CsGT1", "parameters": "method as in Shoji et al., 2015", "settings": "geraniol = 100%; ref Shoji et al., 2015; cited from earlier work"}, "[2]": {"tested_on": "UGTs from Vitis vinifera", "parameters": "method as in Friedericke et al., 2014a; Friedericke et al., 2014b", "settings": "several Vitis vinifera UGTs, enzymes not named, ref Friedericke et al., 2014a, 2014b; cited from earlier work"}, "[3]": {"tested_on": "UGTs from Camellia sinensis", "parameters": "method as in Shoji et al., 2015", "settings": "enzymes not named, ref Shoji et al., 2015; cited from earlier work"}, "[4]": {"tested_on": "UGTs from Actinidia deliciosa", "parameters": "method as in Yar-Khing et al., 2014", "settings": "Actinidia deliciosa UGT; ref Yar-Khing et al., 2014; cited from earlier work"}, "[5]": {"tested_on": "UGT85A84", "assay": "OfUGT85A84 enzyme assay with purified recombinant protein (LC-MS, Michaelis-Menten fitting)", "type": "biochemical, Osmanthus fragrans", "settings": "for Glycosylated products formed with the sugar donor (LC-MS): 0.5 mM sugar donor with 0.5 mM linalool or linalool oxide, 1 h or 16 h incubation at 37°C", "protocol": "The full-length UGT85A84 ORF was amplified and cloned into the pET21b and pET15b expression vectors (Novagen) using the primers listed in Table S2 . The two plasmids were co-transformed into Escherichia. coli BL21 (DE3) pLysS cells (Promega, Madison, WI, USA). The co-transformed cells were cultured in lysogeny broth medium supplemented with 100 µg/ml ampicillin at 37°C until OD600 approached 1.0–1.2. The temperature was then shifted to 16°C, and the cells were incubated with 0.2 mM isopropyl β-D-1-thiogalactopyranoside for 16 h. Subsequently, the cells were harvested by centrifugation, resuspended in lysis buffer (pH 8.0) containing 25 mM Tris-HCl and 150 mM NaCl and lysed by a JN-02 homogenizer. […] The eluted protein was further purified by anion-exchange chromatography (Source 15Q 10/100, GE Healthcare) with a linear NaCl gradient in the buffer (pH 8.0) containing 25mM Tris-HCl, 1M NaCl, and 2mM dithiothreitol. Then, the elution peak was concentrated to 1 ml and subjected to size-exclusion chromatography (Superdex-200 Increase 10/300, GE Healthcare) in the buffer (pH 8.0) containing 25mM Tris-HCl, 150mM NaCl, and 5mM dithiothreitol (DTT). The purity of the protein was analyzed by sodium dodecyl sulfate polyacrylamide gel electrophoresis (SDS-PAGE) and the protein was quantified using a NanoDrop 2000 spectrophotometer (Thermo Scientific, USA). Enzymatic activity assays were carried out according to the description by [Shoji et al. (2015)] with modification. […] After incubation of the mixture at 37°C for 16 h, the reaction was terminated by the addition of 1 µl of 24% trichloroacetic acid (TCA). Except for the concentrations of substrates, the same assay conditions were used for measuring the UGT85A84 kinetic parameters. […] All the reactions were incubated at 37°C for 1 h and repeated in triplicate. The reaction products were subjected to LC-MS analysis. The apparent K m and k cat values for each aglycone and sugar donor were determined by Michaelis-Menten fitting in OriginPro 9.1 software. LC-MS analysis was performed in the Thermo Scientific™ UltiMate™ 3000RS system. The separation was conducted on a Thermo Scientific™ Syncronis C18 column (100*2.1 mm, 1.7µm) at 40°C. Mobile phases consisted of phase A referring to water with 0.1% formic acid and phase B referring to methanol with 0.1% formic acid. […] The samples were eluted with the following linear gradient: 0–1min, 2% B; 1–5min, 2-95% B; 5–7min, 95% B; 7–7.1, 95–2% B; 7.1–9, 2% B. The MS analysis was performed on a Thermo Scientific™ Q Exactive Plus hybrid quadrupole-Orbitrap benchtop high-resolution mass spectrometer equipped with heated electrospray ionization. […] Identification of target compounds was carried out using Data-Dependent Acquisition (DDA). The HCD collision energy was set at NCE 20 for negative mode and was set at NCE 30 50 80 for positive mode. Quantification was performed in the full scan negative mode."}, "[6]": {"tested_on": "UGT85A84", "assay": "Transient over-expression of OfUGTs in Nicotiana benthamiana leaves with aglycone infiltration, glycosides by GC-MS", "type": "in vivo, Osmanthus fragrans", "settings": "N. benthamiana leaves, 50 µM linalool and 200 µM linalool oxides infiltrated, 4 h; GC-MS after β-glucosidase", "procedure": "Transient expression experiments with Nicotiana benthamiana leaves were performed as described by [Zeng et al. (2016)]. […] Five days after the inoculation, the leaves were infiltrated with different aglycone solutions (50 µM linalool and 200 µM linalool oxides in 0.5 M MES + 1 M MgCl2). Four hours after infiltration, the leaves were detached and frozen at –80°C for glycoside determination ([Yar-Khing et al., 2014]). Glycoside extraction coupled with GC-MS was performed to quantify the glycoside contents according to the previously described methods ([Zheng et al., 2017]).\nThe experiments of transient over-expression coupled with the substrate injection in N. benthamiana leaves were conducted to investigate the glycosides produced by candidate OfUGTs in planta. The leaves were infiltrated with Super1300-OfUGT or a control construct in the presence of linalool and its oxides. The glycosides were then extracted and purified after incubation. Subsequently, GC-MS analysis calculated the glycoside contents by quantifying the corresponding aglycones released from the glycosides.\nThe N. benthamiana leaves were infiltrated with a control construct (S1300-GUS) or S1300-OfUGTs in the presence of linalool and its oxides. […] Different letters indicate significant difference as determined by one-way ANOVA followed by LSD t-test (P 0.05)."}, "[7]": {"tested_on": "PpUGT85A2", "parameters": "method as in Wu et al., 2018", "settings": "Prunus persica UGT; ref Wu et al., 2018; cited from earlier work"}, "[8]": {"settings": "aglycone as varied substrate, fixed UDP-Glc 0.5 mM"}, "[9]": {"settings": "aglycone as varied substrate, fixed UDP-Glc 0.5 mM, 37°C, 1 h"}}, "note": "“And” between values parts separate entries of the source, which are not always exact repeats. Identical values can stand only once."}
{"smiles": "OCCc1ccccc1", "note": "[2-PE, 2-phenylethanol]", "values": [{"measurement": "Relative activity of CsGT1 towards substrate", "setting": "[1]", "value": 9.2, "unit": "%"}]}
{"smiles": "C=CC(C)(O)CC/C=C(\\C)CO", "note": "(stereo not drawn) [8-Hydroxylinalool]", "values": [{"measurement": "Km", "setting": "[2]", "value": "33 ± 1.8", "unit": "µM"}]}
{"smiles": "CC/C=C\\CCO", "note": "[(Z)-3-hexenol]", "values": [{"measurement": "Relative activity of CsGT1 towards substrate", "setting": "[1]", "value": 62, "unit": "%"}]}
{"smiles": "CC(C)=CCCC(C)CCO", "note": "(stereo not drawn) [Citronellol]", "values": [{"measurement": "Km", "setting": "[2]", "value": "433 µM and 306 µM and 445 µM"}]}
{"smiles": "CC(C)=CCC/C(C)=C/CO[C@@H]1O[C@H](CO)[C@@H](O)[C@H](O)[C@H]1O", "note": "[Geranyl β-D-glucopyranoside]", "values": [{"measurement": "Km", "setting": "[3]", "value": "78.1 ± 19.6", "unit": "µM"}]}
{"smiles": "CCCCCCO", "note": "[Hexanol]", "values": [{"measurement": "Km", "setting": "[4]", "value": "117 ± 28.1", "unit": "µM"}]}
{"smiles": "CCCCCC(O)CC", "note": "(stereo not drawn) [Octan-3-ol]", "values": [{"measurement": "Km", "setting": "[4]", "value": "66.6 ± 16.2", "unit": "µM"}]}
{"smiles": "CC(C)=CCC[C@H](C)CCO", "note": "[S-Citronellol]", "values": [{"measurement": "Km", "setting": "[2]", "value": "55 ± 1.3", "unit": "µM"}]}
{"smiles": "C[C@@H]1O[C@H](OP(=O)(O)OP(=O)(O)OC[C@H]2O[C@@H](n3ccc(=O)[nH]c3=O)[C@H](O)[C@@H]2O)[C@H](O)[C@H](O)[C@H]1O", "note": "[UDP-Rha, UDP-rhamnose]", "values": [{"measurement": "Glycosylated products formed with the sugar donor (LC-MS)", "setting": "[5]", "value": "No products were detected"}]}
{"smiles": "O=c1ccn([C@@H]2O[C@H](COP(=O)(O)OP(=O)(O)O[C@H]3OC[C@@H](O)[C@H](O)[C@H]3O)[C@@H](O)[C@H]2O)c(=O)[nH]1", "note": "[UDP-Xyl, UDP-xylose]", "values": [{"measurement": "Glycosylated products formed with the sugar donor (LC-MS)", "setting": "[5]", "value": "No products were detected"}]}
{"smiles": "OCc1ccccc1", "note": "[benzyl alcohol]", "values": [{"measurement": "Relative activity of CsGT1 towards substrate", "setting": "[1]", "value": 48, "unit": "%"}]}
{"smiles": "C=CCc1ccc(O)c(OC)c1", "note": "[eugenol]", "values": [{"measurement": "Relative activity of CsGT1 towards substrate", "setting": "[1]", "value": 84, "unit": "%"}]}
{"smiles": "CC(C)=CCC/C(C)=C/CO", "note": "[geraniol]", "values": [{"measurement": "Km", "setting": "[4]", "value": "76.2 ± 11.1", "unit": "µM"}, {"measurement": "Relative activity of CsGT1 towards substrate", "setting": "[1]", "value": 100, "unit": "%"}, {"measurement": "Km", "setting": "[3]", "value": "44.2 ± 3", "unit": "µM"}]}
{"smiles": "C=CC1(C)CCC(C(C)(C)O)O1", "note": "(stereo not drawn) [linalool oxide]", "values": [{"measurement": "k cat/K m", "setting": "[5]; [8]", "value": "1.0494e+07", "unit": "M⁻¹ s⁻¹"}, {"measurement": "k cat", "setting": "[5]; [9]", "value": 2.12, "unit": "S ^-1"}, {"measurement": "Glycoside of the injected aglycone in UGT85A84-infiltrated leaves versus control", "setting": "[6]", "value": "remarkable increase"}]}
{"smiles": "C=CC(C)(O)CCC=C(C)C", "note": "(stereo not drawn) [linalool]", "values": [{"measurement": "k cat/K m", "setting": "[5]; [8]", "value": 718000, "unit": "M⁻¹ s⁻¹"}, {"measurement": "k cat", "setting": "[5]; [9]", "value": 0.09, "unit": "S ^-1"}, {"measurement": "Km", "setting": "[5]; aglycone as varied substrate, fixed UDP-Glc 0.5 mM, 37°C, 1 h, mean and SEM, n = 3", "value": 136, "unit": "µM"}, {"measurement": "Km", "setting": "[7]", "value": "463 ± 80", "unit": "µM"}, {"measurement": "Relative activity of CsGT1 towards substrate", "setting": "[1]", "value": 1.4, "unit": "%"}, {"measurement": "Glycoside of the injected aglycone in UGT85A84-infiltrated leaves versus control", "setting": "[6]", "value": "no significant increase"}]}
